Assay results from US20250361202A1, “CALPAIN INHIBITOR” (GORYO CHEMICAL, INC., priority 2022, published 2025).

Tests used:
[1] = molecular target: T1, calpain-1 from human erythrocytes (Homo sapiens, UniProt P07384); test: Calpain Inhibitory Activity Measurement 2 (HMRG fluorescent probe, various inhibitor concentrations, IC50); assay type: biochemical; conditions: fluorescent probe 5 μM; calpain-1 6.48 μg/mL; 37° C., 30 minutes; Tris buffer pH 7.4
T1 construct: calpain-1 from human erythrocytes; purchased Merck Millipore 208713; host or cells: human erythrocytes
T1 sequence (P07384 1-714): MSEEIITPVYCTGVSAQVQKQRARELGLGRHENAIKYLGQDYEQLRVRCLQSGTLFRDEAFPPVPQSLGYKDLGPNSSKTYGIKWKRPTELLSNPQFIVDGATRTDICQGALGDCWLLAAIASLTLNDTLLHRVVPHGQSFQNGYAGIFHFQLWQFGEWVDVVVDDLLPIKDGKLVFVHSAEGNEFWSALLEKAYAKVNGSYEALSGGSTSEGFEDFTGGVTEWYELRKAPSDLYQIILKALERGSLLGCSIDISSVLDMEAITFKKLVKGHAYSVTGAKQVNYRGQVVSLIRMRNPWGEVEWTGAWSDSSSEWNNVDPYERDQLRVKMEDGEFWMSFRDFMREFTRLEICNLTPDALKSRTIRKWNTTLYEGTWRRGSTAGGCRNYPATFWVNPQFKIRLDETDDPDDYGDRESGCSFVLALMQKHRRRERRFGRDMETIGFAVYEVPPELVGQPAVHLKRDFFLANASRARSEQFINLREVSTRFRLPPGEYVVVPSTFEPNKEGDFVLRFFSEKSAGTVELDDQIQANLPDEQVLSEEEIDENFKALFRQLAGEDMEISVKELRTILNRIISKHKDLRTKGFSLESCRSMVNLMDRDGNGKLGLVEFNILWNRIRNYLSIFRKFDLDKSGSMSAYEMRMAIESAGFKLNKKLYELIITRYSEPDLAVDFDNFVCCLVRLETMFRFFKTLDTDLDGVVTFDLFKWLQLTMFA
T1 sequence (P04632 1-268 partner): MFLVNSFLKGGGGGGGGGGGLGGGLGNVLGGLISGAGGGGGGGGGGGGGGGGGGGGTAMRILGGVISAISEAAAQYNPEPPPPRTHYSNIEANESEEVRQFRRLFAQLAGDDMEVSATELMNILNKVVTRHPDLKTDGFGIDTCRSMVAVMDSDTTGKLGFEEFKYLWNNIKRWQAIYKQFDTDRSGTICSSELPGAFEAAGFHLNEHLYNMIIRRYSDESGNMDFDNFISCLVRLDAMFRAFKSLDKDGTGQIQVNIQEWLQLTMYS
Protocol: Calpain-1 (calpain-1 from human erythrocytes, Cat. No. 208713, Merck Millipore) and a DMSO solution of a HMRG fluorescent probe for detecting calpain activity were added to each of 50 mM Tris buffers (pH: 7.4, 5 mM CaCl2), 2 mM DTE, 2 mM EGTA) containing various concentrations of SNJ-1945 or Compound 13 to perform fluorescence assays (the final concentration of the fluorescent probe was 5 μM, and the final concentration of calpain-1 was 6.48 μg/mL). […] The results are shown in FIG. 2 (concentrations shown in the figure each represent the final concentration of SNJ-1945 or Compound 13 in each assay). The following compound was used as the probe for detecting calpain activity.
An IC50 was determined on the basis of a graph produced with data analysis software “KaleidaGraph”. As a result, the IC50 of Compound 13 was 0.010 μM, and the IC50 of SNJ-1945 was 0.040 μM.

[2] = molecular target: T2, calpain (calpain-1) in the kit (Homo sapiens, UniProt P07384); test: Calpain Inhibitory Activity Measurement 1 (SensorLyte 520 Calpain Activity Assay Kit, 5-FAM/QXL 520 substrate); assay type: biochemical; conditions: inhibitor 0.062 μM; 5-FAM/QXL 520 5.0 μM; 37° C., 25 minutes; compared with SNJ-1945
T2 construct: purchased AnaSpec, Inc. AS-72149
T2 sequence (P07384 1-714): T1 sequence (P07384 1-714)
T2 sequence (P04632 1-268 partner): T1 sequence (P04632 1-268 partner)
Protocol: Calpain inhibitory activity was measured with SensorLyte™ 520 Calpain Activity Asay Kit (AnaSpec, Inc., AS-72149) in conformity with a method described in its assay protocol. SNJ-1945 (Medkoo Biosciences, Inc., Cat #564979), Compound 13, Compound 14, Compound 18, or Compound 19 serving as a calpain inhibitor and a calpain (calpain-1) in the kit were mixed with each other in Assay Buffer, and the mixture was incubated at 37° C. for 3 minutes. 5-FAM/QXL™ 520 serving as a calpain enzyme substrate was added to the incubated product to perform an enzyme reaction by the calpain at 37° C. for 25 minutes (the final concentration of each inhibitor was 0.062 μM, and the final concentration of 5-FAM/QXL™ 520 was 5.0 μM). In the enzyme reaction, the enzyme substrate is cleaved by the calpain to emit fluorescence. The emission fluorescence intensity of the substrate was detected with a plate reader (Infinite™ 200 PRO, TECAN) (at an excitation wavelength of 490 nm and a fluorescence wavelength of 520 nm). SNJ-1945 is a known calpain inhibitor, and has the following structure.

COCC(=O)N[C@@H](CC(C)C)C(=O)N[C@@H](Cc1ccccc1)C(=O)C(=O)NC1CC1 [Compound 13] was tested, and the IC50 [1] was 10 nM and the “enzyme inhibitory activity on the calpain (fluorescence increase amount, FIG. 1)” value [2] was “stronger than that of SNJ-1945”.

COC(C)(C)C(=O)N[C@@H](CC(C)C)C(=O)N[C@@H](Cc1ccccc1)C(=O)C(=O)NC1CC1 [Compound 14] was tested, and the “enzyme inhibitory activity on the calpain (fluorescence increase amount, FIG. 1)” value [2] was “stronger than that of SNJ-1945”.

In the case of C#CCOCC(=O)N[C@@H](CC(C)C)C(=O)N[C@@H](Cc1ccccc1)C(=O)C(=O)NC1CC1 [Compound 18], the “enzyme inhibitory activity on the calpain (fluorescence increase amount, FIG. 1)” value [2] is reported as “stronger than that of SNJ-1945”.

COCCC(=O)N[C@@H](CC(C)C)C(=O)N[C@@H](Cc1ccccc1)C(=O)C(=O)NC1CC1 [Compound 19, reference compound] was tested, and the “enzyme inhibitory activity on the calpain (fluorescence increase amount, FIG. 1)” value [2] was “comparable to that of SNJ-1945”.

COCCOCCOC(=O)N[C@@H](CC(C)C)C(=O)N[C@@H](Cc1ccccc1)C(=O)C(=O)NC1CC1 [SNJ-1945, reference compound] was tested, and the IC50 [1] was 40 nM and the “enzyme inhibitory activity on the calpain (fluorescence increase amount, FIG. 1)” value [2] was “inhibited”.
